Assay results published in patent US7816339B2, “Treatments for Flaviviridae virus infection” (priority 2005, dated 2010).

Legend:
Type in all cases: cell-based
[1] = tested on: replicon RNA (amplicon in NS5B), luciferase replicon cell line; assay: Taqman assay of replicon RNA level in replicon cells; details: Taqman real-time PCR, 2 days incubation; for IC50: 48 h, GADPH RNA as endogenous control, read-out: IC50: drug dose necessary to reach a 2-fold decrease in replicon RNA level
Description: (§1) Cell Culture. Cells of the luciferase replicon cell line (Vrolijk et al., J. Virol. Methods 110:201-209 (2003)) was grown in Dulbecco's minimal essential medium (DMEM) supplemented with 2 mM glutamine, non-essential amino acids (NEAA), 10 mM HEPES, 0.075% sodium bicarbonate, 100 U/ml penicillin and 100 μg/mL streptomycin, and 10% fetal bovine serum. To maintain the selection for replicon, 0.3 mg/mL of G418 were added to the culture media.
Taqman Assay Method. Replicon cells were seeded at 4000 cells/well in 96-well collagen 1-coated Biocoat Plates (Becton Dickinson). Twenty-four hours post-seeding, compounds were added to replicon cells. The final concentration of DMSO was 0.5%, fetal bovine serum was 10%, and no G418 was added. Cells were incubated with compounds for 2 days, at which point the cells were washed with PBS and lysed in 1× cell lysis buffer (Ambion). The replicon RNA level was measured using real time PCR (Taqman assay). The amplicon was located in NS5B. The PCR primers were 5B.2F, ATGGACAGGCGCCCTGA; 5B.2R, […]; the probe sequence was FAM-labeled CACGCCATGCGCTGCGG. GADPH RNA was used as an endogenous control and was amplified in the same reaction as NS5B (multiplex PCR) using primers and VIC-labeled probe recommended by the manufacturer (PE Applied Biosystem). The real-time RT-PCR reactions were run on the ABI PRISM 7900HT Sequence Detection System using the following program: 48° C. for 30 minutes, 95° C. for 10 minutes, 40 cycles of 95° C. for 15 seconds, 60° C. for 1 minute. The ACT values (CT5B-CTGADPH) were plotted against drug concentration and fitted to the sigmoid dose response model using SAS system (SAS Institute, Inc.) or PRISM software (Graphpad Software, Inc.). IC50 was the drug dose response necessary to achieve an increase of 1 in ΔCT over the projected baseline. IC90 was the drug dose response necessary to achieve an increase of 3.2 over the baseline. All Taqman reagents were from PE Applied Biosystem.
(§2) IC50: drug dose necessary to reach a 2-fold decrease in replicon RNA level. IC90: drug dose necessary to reach a 10-fold decrease in replicon RNA level EC50: drug dose necessary to reach a 2-fold decrease in luciferase signal. EC90: drug dose necessary to reach a 10-fold reduction in luciferase signal. CC50: drug dose necessary to reduce the MTS signal to 50% of that of no drug control TI: CC50/EC50 in 5-2 cells. All units are μM.

[2] = tested on: replicon (luciferase signal), luciferase replicon cell line; assay: Dose-response luciferase assay in replicon cells; details: 2 days incubation, 0.5% DMSO, 10% fetal bovine serum; for EC50: 48 h, read-out: EC50: drug dose necessary to reach a 2-fold decrease in luciferase signal
Description: as §1
Dose-Response and Luciferase Assays. Replicon cells were seeded at 5000 cells/well in 96-well collagen 1-coated Biocoat plates (Becton Dickinson; Palo Alto, Calif.). Twenty-four hrs post-seeding, compounds (see Table 1 below) were added to replicon cells. The final concentration of DMSO was 0.5%, fetal bovine serum was 10%, and G418 was not added. The cells were incubated with the compounds for 2 days, at which point the cells were washed with PBS and lysed in 40 μl Glo Lysis Buffer (Promega; Madison, Wis.). 20 μl of lysates were mixed with 100 μl Luciferase Assay Reagent (Promega) and read on a Microtiter Plate Luminometer MLX (DYNEX Technologies; Chantilly, Va.). The fold of reduction in luciferase signal compared to no compound control was plotted against drug concentration and fitted to the sigmoid dose response model using PRISM software (Graphpad Software Inc.; San Diego, Calif.).
as §2

replicon cells = assay: Cell toxicity assay (MTS) on replicon cells; details: for CC50: MTS assay on replicon cells, read-out: CC50: drug dose necessary to reduce the MTS signal to 50% of that of no drug control; for TI: CC50/EC50 in 5-2 cells: ratio CC50/EC50, 5-2 cells
Description: (§3) Cell toxicity assay. The toxicity of compounds on the replicon cells were measured by MTS assay following manufacturer's instructions (Promega). Briefly, 20 μl of CellTiter 96®RAQueous One Solution Reagent were added to each well of the 96-well plate containing 100 μl of culture medium. The plates were incubated for 30-60 minutes before reading OD by DYNEX MRX.
as §2

[3] = Cell toxicity assay (MTS) on replicon cells; details: human; MTS assay on replicon cells; read-out: CC50: drug dose necessary to reduce the MTS signal to 50% of that of no drug control
Description: as §3, §2

Row | Compound | IC90: drug dose necessary to reach a 10-fold decrease in replicon RNA level [1] | EC90: drug dose necessary to reach a 10-fold reduction in luciferase signal [2] [μM] | CC50 (replicon cells) [µM] | TI: CC50/EC50 in 5-2 cells (replicon cells) | IC50 [1] [µM] | EC50 [2] [µM] | CC50 at 2 days [3] [µM]
1 | O=c1nc(N=CN2CCCCC2)ccn1[C@@H]1O[C@H](CO)[C@@H](O)[C@@H]1O [XI, N^4-[Piperidinomethylene]arabinocytidine] | >10 μM | 8 | > 10 | >100 | – | – | –
2 | NC(=O)c1ncn([C@@H]2O[C@H](CO)[C@@H](O)[C@H]2O)n1 [Ribavirin, 1-β-D-ribofuranosyl-1H-1,2,4-triazole-3-carboxamide, reference compound] | not reached | 80 | – | ~25 | 40 to 100 | 20 | ~500
3 | Nc1ccn([C@@H]2O[C@H](CO)[C@@H](O)[C@@H]2O)c(=O)n1 [Cytarabine, reference compound] | >10 μM | 4 | – | >200 | ~10 | 0.05 | > 10
4 | O=c1nc(/N=C/N2CCOCC2)ccn1[C@@H]1O[C@H](CO)C(O)C1O (stereo in doubt) [XII, N^4-[Morpholinomethylene]arabinocytidine] | >10 μM | 1.5 | – | >500 | > 10 | 0.02 | > 10
5 | O=c1nc(N=CN2CCCC2)ccn1[C@@H]1O[C@H](CO)[C@@H](O)[C@@H]1O [XIII, N^4-[Pyrrolidinomethylene]arabinocytidine] | >10 μM | 5 | > 10 | >100 | – | – | –
6 | CC(C)N(C=Nc1ccn([C@@H]2O[C@H](CO)[C@@H](O)[C@@H]2O)c(=O)n1)C(C)C [X, N^4-[(Diisopropylamino)methylene]arabinocytidine] | >10 μM | 2 | > 10 | >300 | – | – | –
